Consider one compound from patent US8163921B2, “Hepatitis C virus inhibitors” (Bristol-Myers Squibb Company, priority 2008, dated 2012).

The structures appear in SMILES notation. pIC50: −log10 of the molar value.

For test [1], the target named is T1, HCV NS3/4A protease complex, BMS strain (UniProt P27958, C1454S/C1711G, species not given).
T1 construct: other: HCV NS3/4A enzyme assay; class symbols; numeric values; fused on or other part: three-lysine solubilising tail at the C-terminus of NS4A; purified on Ni-NTA from the pET21b vector (His tag implied)
The experiment in a line: FRET peptide assay to monitor HCV NS3/4A proteolytic activity (BMS strain). The class given is biochemical, HCV genotype 1a. Particulars: read-out: IC50 Range; HCV NS3/4A enzyme assay; class symbols. The method in brief:
(§1)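 Recombinant HCV NS3/4A protease complex (BMS strain, genotype 1a), 2-3 nM final (300 pM with 50 μg/ml BSA for very potent compounds), incubated with RET S1 EDANS/DABCYL depsipeptide substrate at 2 μM final. Buffer: 50 mM HEPES pH 7.5, 0.15 M NaCl, 0.1% Triton, 15% glycerol, 10 mM βME. Cleavage followed in real time by fluorescence.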

The target of test [2] is T2, HCV NS3/4A protease complex, BMS strain (UniProt P27958, C1454S/C1711G, species not given/STRAIN_BMS).
T2 construct: other: BMS strain; fused on or other part: three-lysine solubilising tail at the C-terminus of NS4A; purified on Ni-NTA from the pET21b vector (His tag implied)
Described as above. Type of test: biochemical, HCV genotype 1a. The note with it: read-out: IC50 against the NS3/4A BMS strain in the enzyme assay; BMS strain. The method in brief:
as §1

Consider `C=C[C@@H]1C[C@]1(NC(=O)[C@@H]1C[C@@H](Oc2ncc(OC)c3ccc(Cl)cc23)CN1C(=O)[C@@H](Nc1nc(-c2cccc(OC(F)(F)F)c2)cs1)C(C)(C)C)C(=O)NS(=O)(=O)C1CC1` [Example 68], for which the pIC50 in test [1] was 7.70 to 9.00; in test [2], 8.40.
